Experimental data as given in publication PMC7286421 (Hypertension (Dallas, Tex. : 1979), 2019).
Values belong to the molecule of their own block, whether it stands above or below them. Where a SMILES comes first, the peptide text is derived from it. The star is where a group is joined. Cbz = O=C(OCc1ccccc1)*

What was measured:
mouse serum = experiment: Ex vivo Ang-; type: biochemical
lung lysates = experiment: Ex vivo Ang-; conditions: for peak Ang-(1-7) at 15 min: no inhibitor (Figure 4b)
[1] = Plasma angiotensin peptide levels after i.p. Ang II injection; type: in vivo, mice
kidney lysates = experiment: Ex vivo Ang-; type: biochemical, mouse
lung tissue = experiment: Ex vivo Ang-; type: biochemical, mouse; conditions: lung tissue (Supplement Figure S4b)
PRCP = conditions: selective for POP in the 10 μM range; cited from earlier work
Ang II = experiment: In vitro Phenylalanine formation from Ang II by recombinant enzymes; type: biochemical; conditions: equivalent amounts of murine recombinant enzymes, fluorometric (Figure 6c)
[2] = ACE2−/−/PRCP−/− sera incubated with Ang II, n=3
[3] = WT mice, Ang II i.p., 5 minutes, LC/MS-MS, n=6, mean ± SE
[4] = WT sera incubated with Ang II, ZPP 10^−5M, n=6

Molecule: CC(C)C[C@H](N[C@@H](Cc1cncn1Cc1cc(Cl)cc(Cl)c1)C(=O)O)C(=O)O [MLN-4760]
- effect of MLN-4760 on Ang-(1-7) formation (lung lysates; POP−/− lungs (Figure 4d)): no effect
- generation of Ang-(1-7) from Ang II with MLN-4760 (kidney lysates; POP−/− kidney lysates, MLN-4760 10^−5M (Figure 4c)): completely obliterated

Molecule: O=C(O)CNC(=O)C(CS)Cc1ccccc1 (stereo not drawn) [Thiorphan]
- peak formation of Ang-(1-7) from exogenous Ang I with inhibitor (lung tissue): reduced the peak level of Ang-(1-7) from Ang I to an extent similar to S-17092

Molecule: O=C[C@@H]1CCCN1C(=O)[C@@H]1CCCN1C(=O)OCc1ccccc1 [ZPP, Z-Pro-Prolinal] (Cbz-Pro-Pro-aldehyde)
- Ang-(1-7) formed at 15 minutes with ZPP (mouse serum; [4]): 4.5 ± 4.5 pmol/mL
- Ang-(1-7) formed at 30 minutes with ZPP (mouse serum; [4]): 8.9 ± 4.5 pmol/mL
- lowering of Ang-(1-7) formation at 15 minutes (mouse serum; WT sera, ZPP 10^−5M): 85,8%
- lowering of Ang-(1-7) formation at 30 minutes (mouse serum; WT sera, ZPP 10^−5M): 72%
- Ang-(1-7) formation from Ang II with ZPP (lung lysates; lung lysates from both WT and ACE2−/−/PRCP−/− mice (Figure 4b)): completely prevented
- concentration at which ZPP also inhibits PRCP (PRCP): > 100 µM
- Ang-(1-7) levels with ZPP (kidney lysates; ACE2−/−/PRCP−/− kidney lysates, ZPP, n=7, all time points assessed): undetectable
- Ang-(1-7) formation at 15 minutes with ZPP (kidney lysates; WT kidney lysates spiked with Ang II plus ZPP): 417 ± 32 pmol/mL

Second part, the molecule after the results:

- Ang-(1-7) formed at 15 minutes (mouse serum; [2]): 17.8 ± 6 pmol/mL
- Ang-(1-7) formed at 30 minutes (mouse serum; [2]): 17 ± 7 pmol/mL
- Ang-(1-7) formed at 30 minutes (mouse serum; WT sera incubated with Ang II, no ZPP, n=6): 31.8 ± 6.7 pmol/mL
- amount of Ang-(1-7) formed from Ang II (mouse serum; sera from POP−/− mice (n=4) compared to ACE2−/−/PRCP−/− and WT mice): markedly reduced
- peak Ang-(1-7) at 15 min (lung lysates; ACE2−/−/PRCP−/− lung lysates incubated with Ang II): 313 ± 31 pmol/mL
- peak Ang-(1-7) at 15 min (lung lysates; WT lung lysates incubated with Ang II): 230 ± 33 pmol/mL
- Ang-(1-7) formation from Ang II (lung lysates; lung lysates from POP−/− mice, no inhibitor (Figure 4d)): almost undetectable
- peak Ang-(1-7) formation at 15 minutes (lung lysates; lung lysates, Ang II without S-17092 (Supplement figure S4a)): 182.8 ± 23 pmol/mL
- levels of plasma Ang-(1-7) at 30 minutes ([1]; 30 minutes post infusion, WT, WT treated with ZPP, ACE2−/−/PRCP−/− (Figure S3b)): decreased markedly
- levels of plasma Ang II at 30 minutes ([1]; 30 minutes post infusion, all four groups studied (Figure S3a)): markedly decreased
- plasma Ang-(1-7) levels ([1]; ACE2−/−/PRCP−/− mice, 5 minutes after Ang II infusion, no ZPP (Figure 2b)): 537 ± 70 fmol/mL
- plasma Ang-(1-7) levels ([1]; POP−/− mice, 5 minutes after Ang II i.p. (Figure 3d)): 309 ± 46 fmol/mL
- plasma Ang-(1-7) to Ang II ratio ([1]; POP−/− mice, after Ang II infusion): 0.23±0.02
- plasma Ang-(1-7) levels ([1]; WT mice (controls of POP−/−), 5 minutes after Ang II i.p. (Figure 3d)): 472 ± 28 fmol/mL
- plasma Ang-(1-7) levels ([1]; WT mice, 5 minutes after Ang II infusion, no ZPP (Figure 2b)): 563 ± 51 fmol/mL
- plasma Ang II levels in Ang II-infused vs control animals ([1]; WT mice, 5 minutes, ELISA): about 100 fold
- plasma Ang-(1-7) levels ([1]; WT mice, Ang II 0.2 μg/g BW i.p., 5 minutes, ELISA, n=6, mean ± SE): 1268 ± 439 fmol/mL
- plasma Ang-(1-5) [1, 3]: 233 ± 24 fmol/mL
- plasma Ang-(1-7) [1, 3]: 854 ± 222 fmol/mL
- plasma Ang-(1-7) levels ([1]; WT mice, Ang II i.p., 5 minutes, RIA, same plasma samples, mean ± SE): 1702 ± 268 fmol/mL
- peak Ang-(1-7) levels (kidney lysates; ACE2−/−/PRCP−/− kidney lysates spiked with Ang II, no inhibitor): 94 ± 18 pmol/mL
- peak Ang-(1-7) formation at 15 minutes (kidney lysates; WT kidney lysates spiked with Ang II, no inhibitor, n=10): 417 ± 32 pmol/mL
- Ang-(1-7) formation from Ang II over time, POP−/− vs WT (kidney lysates; kidneys from WT and POP−/− mice, no inhibitor (Figure 4c)): almost identical
Molecule: CC[C@H](C)[C@H](NC(=O)[C@H](Cc1ccc(O)cc1)NC(=O)[C@@H](NC(=O)[C@H](CCCNC(=N)N)NC(=O)[C@@H](N)CC(=O)O)C(C)C)C(=O)N[C@@H](Cc1cnc[nH]1)C(=O)N1CCC[C@H]1C(=O)N[C@@H](Cc1ccccc1)C(=O)O [Ang II, Angiotensin II]

- Phenylalanine generation from Ang II (Ang II): 127±12 RFU/ng
Molecule: mrPOP: murine recombinant Prolyl Oligopeptidase

- Phenylalanine generation from Ang II (Ang II): 789±29 RFU/ng
B1: mrACE2: murine recombinant Angiotensin Converting Enzyme 2 (protein, UniProt Q8R0I0 18-805, looked up)
Angiotensin-converting enzyme …: QSLTEENAKTFLNNFNQEAEDLSYQSSLASWNYNTNITEENAQKMSEAAAKWSAFYEEQSKTAQSFSLQEIQTPIIKRQLQALQQSGSSALSADKNKQLNTILNTMSTIYSTGKVCNPKNPQECLLLEPGLDEIMATSTDYNSRLWAWEGWRAEVGKQLRPLYEEYVVLKNEMARANNYNDYGDYWRGDYEAEGADGYNYNRNQLIEDVERTFAEIKPLYEHLHAYVRRKLMDTYPSYISPTGCLPAHLLGDMWGRFWTNLYPLTVPFAQKPNIDVTDAMMNQGWDAERIFQEAEKFFVSVGLPHMTQGFWANSMLTEPADGRKVVCHPTAWDLGHGDFRIKMCTKVTMDNFLTAHHEMGHIQYDMAYARQPFLLRNGANEGFHEAVGEIMSLSAATPKHLKSIGLLPSDFQEDSETEINFLLKQALTIVGTLPFTYMLEKWRWMVFRGEIPKEQWMKKWWEMKREIVGVVEPLPHDETYCDPASLFHVSNDYSFIRYYTRTIYQFQFQEALCQAAKYNGSLHKCDISNSTEAGQKLLKMLSLGNSEPWTKALENVVGARNMDVKPLLNYFQPLFDWLKEQNRNSFVGWNTEWSPYADQSIKVRISLKSALGANAYEWTNNEMFLFRSSVAYAMRKYFSIIKNQTVPFLEEDVRVSDLKPRVSFYFFVTSPQNVSDVIPRSEVEDAIRMSRGRINDVFGLNDNSLEFLGIHPTLEPPYQPPVTIWLIIFGVVMALVVVGIIILIVTGIKGRKKKNETKREENPYDSMDIGKGESNAGFQNSDDAQTSF
